Assay results: patent US6887869B2, “Mikanolide derivatives, their preparation and therapeutic uses” (Societe de Conseils de Recherches et d'Applications …, priority 2001, dated 2005)

What was measured:
[1] = system: DNA polymerase of E. Coli (Klenow DNA polymerase enzyme); assay: Incorporation of deoxycytidine 5'-[alpha32P]-triphosphate into a DNA in the presence of DNA polymerase in an acellular system; format: biochemical; settings: concentration 100 μg/ml; labelled dCTP, 10 minutes at 37°, vs control
Method: Incorporation of Deoxycytidine 5′-[alpha^32P]-triphosphate into a DNA in the Presence of DNA Polymerase in an Acellular System
Labelling of the DNA is carried out on a DNA fragment which incorporates nucleotides by way of the activity of the DNA polymerase enzyme. From these nucleotides, the dCTP is labelled with radioactive phosphorus (^32P).
Plasmidal DNA (pc DNA 3, invitrogen, Netherlands) is diluted to a concentration of 2 ng in 45 μl of TE solution (10 mM Tris-HCl, pH 8, 1 mM EDTA) and denatured by heating to 100° C. for 10 minutes before being replaced directly in ice. The denatured DNA is placed in the tube which contains the buffer solution of dATP, dGTP, dTTP, the Klenow DNA polymerase enzyme and the random primers (Rediprime II random prime labelling system, RPN 1633, RPN 1634, Amersham pharmacia biotech). 2 μl of Redivue deoxycytidine 5′-[alpha^32P]-triphosphate (250 μCi specific activity Amersham, Orsay, France) is added to start the reaction. The reaction is carried out in the presence or absence of the compound to be tested for 10 minutes at 37°. […] 10 μL is counted in 5 ml of scintillator (Instage1 plus and scintillation counter Packard, Rungis, France). The results are expressed as a percentage of the inhibition of incorporation of the labelled nucleotide in the sample with respect to the control: 100−[(DPM of the sample treated/control DPM)×100].

HT29 tumor cells = assay: Incorporation of tritiated thymidine into DNA of HT29 cells in exponential growth phase; format: cell-based, human; settings: 3 hours treatment
Method: (§1) DU-145 (human prostate cancer cells), HT29 (cancer of the colon) and Mia-PaCa2 (human pancreatic cancer cells) were acquired from the American Tissue Culture Collection (Rockville, Md., USA).
Incorporation of Thymidine Labelled with Tritium into DNA Cells in Exponential Growth Phase
HT29 cells are seeded in 96-well plates (culturPlate-96, Packard, Rungis, France) (4000 cells per well) with the medium (DME, Gibco BRL, Cergy-Pontoise, France) complemented with 10% of foetal calf serum, Gibco BRL, Cergy-Pontoise, France). On day 3, the medium is removed and replaced with medium containing the tritiated thymidine (5′-thymidine TRK.328, 1 mCi, 0.6 μCi/well, Amersham, Orsay, France) with or without the compound. The treatments are carried out for 3 hours. The medium is then removed and the cells are washed twice with 20 μl of PBS (Gibco BRL, Cergy-Pontoise, France). The lysis solution (SDS 1.25%, EDTA 5 mM) is added for 10 minutes at ambient temperature, then 75 μl of scintillating liquid (microscint 40, Packard, Rungis, France) is added. The plates are read using Topcount (Packard, Rungis, France). These tests are carried out in duplicate and the results are expressed with respect to the incorporation of the labelled nucleotide in the sample treated with the compound over the incorporation of the labelled nucleotide in the control sample (sample DPM/control DPM).

[2] = system: DU-145 (human prostate cancer cells); assay: Measurement of cell proliferation (WST1), DU-145; format: cell-based; settings: DU-145, 96 hours treatment, read-out: IC50 inhibitory concentration, proliferation of DU-145 cell lines
Method: as §1
(§2) Measurement of Cell Proliferation
(§3) The cells placed in 80 μl of Dulbecco's modified Eagle medium (Gibco-BRL, Cergy-Pontoise, France) completed with 10% of foetal calf serum inactivated by heating (Gibco-BRL, Cergy-Pontoise, France), 50000 units/l of penicillin and 50 mg/l streptomycin (Gibco-BRL, Cergy-Pontoise, France), and 2 mM of glutamine (Gibco-BRL, Cergy-Pontoise, France) were seeded on a 96-well plate on day 0. The cells were treated on day 1 for 96 hours with increasing concentrations of each of the compounds to be tested. At the end of the of this period, quantification of the cell proliferation is evaluated by a calorimetric test based on the cleavage of the tetrazolium salt WST1 by mitochondrial dehydrogenases in viable cells leading to the formation of formazan (Boehringer Mannheim, Meylan, France). These tests are carried out in duplicate with 8 determinations per concentration tested. The products are solubilised in dimethylsulphoxide (DMSO) at 10^−2 M and finally used in culture with 0.5% DMSO.

[3] = system: Mia-PaCa2 (human pancreatic cancer cells); assay: Measurement of cell proliferation (WST1), Mia-PaCa2; format: cell-based; settings: MIA PaCa-2, Mia-Paca2, 96 hours treatment, read-out: IC50 inhibitory concentration, proliferation of Mia-Paca2 cell lines
Method: as §1, §2, §3

Compound: C[C@H]1C(=O)O[C@H]2C[C@]3(C)O[C@@H]3[C@@H]3O[C@@H]3C3=C[C@@H](OC3=O)[C@@H]21 [Dihydromikanolide, dihydromikanolide, reference compound]
- % inhibition of incorporation [1]: 77 ± 11%
- incorporation of tritiated thymidine (sample dpm/control dpm) (HT29 tumor cells; 25 μg/ml): 0.98
- incorporation of tritiated thymidine (sample dpm/control dpm) (HT29 tumor cells; 50 μg/ml): 0.22
- incorporation of tritiated thymidine (sample dpm/control dpm) (HT29 tumor cells; 100 μg/ml): 0.14

Compound: CC1C(=O)OC2CC3(C)OC3C(O[Si](C)(C)C(C)(C)C)C(N(C)C)C3=CC(OC3=O)C21 (centres unmarked) [Example 16, 11-(tert-butyldimethylsiloxy)-12-dimethylamino-3,8-dimethyl-5,9,15-trioxatetracyclo[11.2.1.0^2,6.0^8,10]hexadec-13(16)-ene-4,14-dione]
- % inhibition of incorporation [1]: 70 ± 8%
- incorporation of tritiated thymidine (sample dpm/control dpm) (HT29 tumor cells; 25 μg/ml): 0.71
- incorporation of tritiated thymidine (sample dpm/control dpm) (HT29 tumor cells; 50 μg/ml): 0.58
- incorporation of tritiated thymidine (sample dpm/control dpm) (HT29 tumor cells; 100 μg/ml): 0.52
- IC50 [2]: ≤ 30 µM
- IC50 [3]: ≤ 30 µM

Compound: COc1ccccc1NC(=O)OC1C(N(C)C)C2CC(OC2=O)C2C(CC3(C)OC13)OC(=O)C2C (centres unmarked) [Example 39, 8-(dimethylamino)-3,10a-dimethyl-2,6-dioxodecahydro-4,7-methenofuro[3,2-c]oxireno[f]oxacycloundecin-9-yl 2-methoxyphenylcarbamate]
- IC50 [2]: ≤ 30 µM
- IC50 [3]: ≤ 30 µM

Compound: CSc1ccccc1NC(=O)OC1C(N(C)C)C2CC(OC2=O)C2C(CC3(C)OC13)OC(=O)C2C (centres unmarked) [Example 40, 8-(dimethylamino)-3,10a-dimethyl-2,6-dioxodecahydro-4,7-metheno-furo[3,2-c]oxireno[f]oxacycloundecin-9-yl 2(methylthio)phenylcarbamate]
- IC50 [2]: ≤ 30 µM
- IC50 [3]: ≤ 30 µM

Compound: CCOc1ccccc1NC(=O)OC1C(N(C)C)C2CC(OC2=O)C2C(CC3(C)OC13)OC(=O)C2C (centres unmarked) [Example 41, 8-(dimethylamino)-3,10a-dimethyl-2,6-dioxodecahydro-4,7-methenofuro[3,2-c]oxireno[f]oxacycloundecin-9-yl 2-ethoxyphenylcarbamate]
- IC50 [2]: ≤ 30 µM
- IC50 [3]: ≤ 30 µM

Compound: CC1C(=O)OC2CC3(C)OC3C(OC(=O)Nc3ccsc3)C(N(C)C)C3CC(OC3=O)C21 (centres unmarked) [Example 42, 8-(dimethylamino)-3,10a-dimethyl-2,6-dioxodecahydro-4,7-methenofuro[3,2-c]oxireno[f]oxacycloundecin-9-yl thien-3-ylcarbamate]
- IC50 [2]: ≤ 30 µM
- IC50 [3]: ≤ 30 µM

Compound: CC1C(=O)OC2CC3(C)OC3C(OC(=O)Nc3csc4ccccc34)C(N(C)C)C3CC(OC3=O)C21 (centres unmarked) [Example 43, 8-(dimethylamino)-3,10a-dimethyl-2,6-dioxodecahydro-4,7-methenofuro[3,2-c]oxireno[f]oxacycloundecin-9-yl 1-benzothien-3-ylcarbamate]
- IC50 [2]: ≤ 30 µM
- IC50 [3]: ≤ 30 µM
